Patent US8501783B2, “Conformationally restricted urea inhibitors of soluble epoxide hydrolase” (The Regents of the University of California, priority 2006, dated 2013)
Read-outs that look alike come from different tables or passages of the source.

Tests used:
[1] = Pharmacokinetic screening in dogs, oral administration, plasma LC-MS/MS; details: for AUC: dog, plasma, po, 0.3 mg/kg
[2] = Solubility in oil of the dosing preparation (compound in Crisco); assay type: physicochemical; details: appearance in oil, in parentheses after compound number
From the text: The dogs are fed immediately thereafter.

human sEH = human sEH (Homo sapiens (Human), UniProt P34913); assay: Inhibition of human soluble epoxide hydrolase (IC50; one of three substrate methods); assay type: biochemical;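 also: enzyme expressed in baculovirus and affinity-purified, assays run in triplicate, with substrate and read-out differing among the three methods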
Sequence of human sEH (P34913 whole entry): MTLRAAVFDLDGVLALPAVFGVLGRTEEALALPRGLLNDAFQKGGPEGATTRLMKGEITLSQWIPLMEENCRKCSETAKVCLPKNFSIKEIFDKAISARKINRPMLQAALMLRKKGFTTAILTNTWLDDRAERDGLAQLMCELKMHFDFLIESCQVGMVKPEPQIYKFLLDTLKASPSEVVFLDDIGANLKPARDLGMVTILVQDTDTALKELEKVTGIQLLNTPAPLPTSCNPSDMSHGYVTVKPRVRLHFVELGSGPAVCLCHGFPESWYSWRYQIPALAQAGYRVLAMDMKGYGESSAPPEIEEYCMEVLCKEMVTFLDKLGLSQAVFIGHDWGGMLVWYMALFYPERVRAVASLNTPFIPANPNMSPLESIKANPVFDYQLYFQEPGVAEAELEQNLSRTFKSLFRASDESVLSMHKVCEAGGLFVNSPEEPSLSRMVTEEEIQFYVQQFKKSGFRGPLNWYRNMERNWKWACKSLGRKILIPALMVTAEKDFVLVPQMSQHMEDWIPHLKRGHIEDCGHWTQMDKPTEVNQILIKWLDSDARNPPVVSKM

O=C(NC1CCN(C(=O)C(F)(F)F)CC1)NC12CC3CC(CC(C3)C1)C2 [Compound 1606]
AUC [1]: 0.0433 µM·h | AUCINF_D_pred ([1]; dogs, oral, dose-normalised): 8553 kg·nM·min/mg | LC/MS analysis, plasma level at time 0 ([1]; dogs, single oral dose (0.3 mg/kg per FIG. 1), time 0 min): 0.00 | LC/MS analysis, plasma level at time 15 ([1]; dogs, single oral dose (0.3 mg/kg per FIG. 1), time 15 min): 0.00 | LC/MS analysis, plasma level at time 30 ([1]; dogs, single oral dose (0.3 mg/kg per FIG. 1), time 30 min): 1.61 | LC/MS analysis, plasma level at time 60 ([1]; dogs, single oral dose (0.3 mg/kg per FIG. 1), time 60 min): 4.82 | LC/MS analysis, plasma level at time 120 ([1]; dogs, single oral dose (0.3 mg/kg per FIG. 1), time 120 min): 9.37 | LC/MS analysis, plasma level at time 180 ([1]; dogs, single oral dose (0.3 mg/kg per FIG. 1), time 180 min): 10.98 | LC/MS analysis, plasma level at time 240 ([1]; dogs, single oral dose (0.3 mg/kg per FIG. 1), time 240 min): 6.83 | LC/MS analysis, plasma level at time 300 ([1]; dogs, single oral dose (0.3 mg/kg per FIG. 1), time 300 min): 5.62 | LC/MS analysis, plasma level at time 360 ([1]; dogs, single oral dose (0.3 mg/kg per FIG. 1), time 360 min): 3.21 | LC/MS analysis, plasma level at time 480 ([1]; dogs, single oral dose (0.3 mg/kg per FIG. 1), time 480 min): 1.47 | solubility in oil [2]: 1606 (Suspension)

CC(=O)N1CCC(NC(=O)CC23CC4CC(CC(C4)C2)C3)CC1 [Compound 1642]
AUC [1]: 0.0967 µM·h | IC50 (human sEH; recombinant human sEH): 275 nM

CC(=O)N1CCC(NC(=O)NC2CCCCCC2)CC1 [Compound 1645, 1-(1-Acetyl-piperidin-4-yl)-3-cycloheptyl-urea]
AUC [1]: 3.68 µM·h | IC50 (human sEH): 27.6 nM

CS(=O)(=O)N1CCC(NC(=O)NC23CC4CC(CC(C4)C2)C3)CC1 [Compound 1701, 1-Adamantan-1-yl-3-(1-methanesulfonyl-piperidin-4-yl)-urea]
AUC [1]: 0.0817 µM·h | IC50 (human sEH; recombinant human sEH): 1.4 nM

COC(=O)N1CCC(NC(=O)NC23CC4CC(CC(C4)C2)C3)CC1 [Compound 1702, 4-(3-Adamantan-1-yl-ureido)-piperidine-1-carboxylic acid methyl ester]
AUC [1]: 0.09 µM·h | IC50 (human sEH; recombinant human sEH): 0.9 nM

Cc1ccc(S(=O)(=O)N2CCC(NC(=O)Nc3ccc(OC(F)(F)F)cc3)CC2)cc1 [Compound 1711, 1-[1-(Toluene-4-sulfonyl)-piperidin-4-yl]-3-(4-trifluoromethoxy-phenyl)-urea]
IC50 (human sEH; recombinant human sEH): 0.4 nM

Morpholine-4-carboxylic acid 2-methyl-biphenyl-3-ylmethyl ester [Compound 1562]
IC50 (human sEH; recombinant human sEH): 12000 nM
